This note sets out measurements from US9708316B2 (BRISTOL-MYERS SQUIBB COMPANY, priority 2014, dated 2017).

SMILES strings stand for the structures. A value given as a limit tells only on which side of the number the result lay.

For one experiment, the target named is T1, HIS-TGFβR1 T204D (Homo sapiens, UniProt P36897, T204D).
T1 sequence (P36897 34-503 T204D): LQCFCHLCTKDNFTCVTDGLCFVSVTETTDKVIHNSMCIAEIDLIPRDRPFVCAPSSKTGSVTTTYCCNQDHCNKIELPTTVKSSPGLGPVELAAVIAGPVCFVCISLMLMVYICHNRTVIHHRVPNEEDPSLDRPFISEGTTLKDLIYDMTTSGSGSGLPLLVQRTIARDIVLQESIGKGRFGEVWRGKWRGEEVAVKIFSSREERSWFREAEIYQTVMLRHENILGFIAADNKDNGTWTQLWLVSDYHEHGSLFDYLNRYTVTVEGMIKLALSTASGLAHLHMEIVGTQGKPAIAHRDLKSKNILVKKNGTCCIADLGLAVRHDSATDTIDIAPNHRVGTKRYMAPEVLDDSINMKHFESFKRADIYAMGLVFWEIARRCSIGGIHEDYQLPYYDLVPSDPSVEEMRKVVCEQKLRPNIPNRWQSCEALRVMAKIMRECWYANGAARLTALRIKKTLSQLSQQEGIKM
Put plainly: HTRF probe-displacement assay, HIS-TGFβR1 T204D. The experiment is classed as binding. The note with it: read-out: TGFβR1 (μM) IC50. A general note: In TR-FRET formats the signal depends on donor and acceptor labels being close together.

In the next experiment the target is HIS-TGFβR2 WT (Homo sapiens, UniProt P37173). Put plainly: HTRF probe-displacement assay, HIS-TGFβR2 WT. It is filed as binding.
Sequence of HIS-TGFβR2 WT (P37173 23-567): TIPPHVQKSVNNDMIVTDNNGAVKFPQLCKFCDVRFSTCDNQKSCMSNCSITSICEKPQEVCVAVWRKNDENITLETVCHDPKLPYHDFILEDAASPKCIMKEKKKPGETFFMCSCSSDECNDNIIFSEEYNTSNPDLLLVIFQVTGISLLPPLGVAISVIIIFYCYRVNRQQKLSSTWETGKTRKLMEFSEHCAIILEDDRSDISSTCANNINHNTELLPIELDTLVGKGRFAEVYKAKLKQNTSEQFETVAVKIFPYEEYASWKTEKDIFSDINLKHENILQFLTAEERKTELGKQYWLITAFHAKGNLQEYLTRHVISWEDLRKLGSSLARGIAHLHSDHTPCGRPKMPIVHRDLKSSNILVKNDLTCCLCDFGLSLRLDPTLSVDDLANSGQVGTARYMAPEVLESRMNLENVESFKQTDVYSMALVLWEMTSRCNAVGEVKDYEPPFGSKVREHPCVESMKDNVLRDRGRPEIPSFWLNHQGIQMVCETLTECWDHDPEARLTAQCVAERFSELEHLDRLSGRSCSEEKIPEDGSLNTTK

As for `CC(=O)Nc1cc(-c2[nH]c3c(C4CCN(C)CC4)ccnc3c2-c2cccc(C)n2)ccn1` [Example 138, N-{4-[7-(1-Methylpiperidin-4-yl)-3-(6-methylpyridin-2-yl)-1H-pyrrolo[3,2-b]pyridin-2-yl]pyridin-2-yl}acetamide], the IC50 (in general, the point on the concentration scale where inhibition reaches its midpoint) at HIS-TGFβR1 T204D was 0.2 µM; at HIS-TGFβR2 WT, over 15 µM.

Regarding `CC(=O)Nc1cc(-c2[nH]c3c(CN4CCN(C)CC4)ccnc3c2-c2cccc(C(F)F)n2)ccn1` [Example 139, N-(4-{3-[6-(Difluoromethyl)pyridin-2-yl]-7-[(4-methylpiperazin-1-yl)methyl]-1H-pyrrolo[3,2-b]pyridin-2-yl}pyridin-2-yl)acetamide], the IC50 at HIS-TGFβR1 T204D was 0.001 µM; at HIS-TGFβR2 WT, 8.47 µM.

In the case of `CC(=O)Nc1cc(-c2[nH]c3c(CN4CCOCC4)ccnc3c2-c2cccc(C(F)F)n2)ccn1` [Example 140, N-(4-{3-[6-(Difluoromethyl)pyridin-2-yl]-7-(morpholin-4-ylmethyl)-1H-pyrrolo[3,2-b]pyridin-2-yl}pyridin-2-yl)acetamide], the IC50 was 0.001 µM on HIS-TGFβR1 T204D and 7.6 µM at HIS-TGFβR2 WT.

For `CC(=O)Nc1cc(-c2[nH]c3c(CN(C)C)ccnc3c2-c2cccc(C(F)F)n2)ccn1` [Example 141, N-(4-{3-[6-(Difluoromethyl)pyridin-2-yl]-7-[(dimethylamino)methyl]-1H-pyrrolo[3,2-b]pyridin-2-yl}pyridin-2-yl)acetamide], the IC50 at HIS-TGFβR1 T204D amounted to 0.003 µM; at HIS-TGFβR2 WT it was 27.3 µM.

As for `CC(=O)Nc1cc(-c2[nH]c3c(CO)ccnc3c2-c2cccc(C(F)F)n2)ccn1` [Example 142, N-(4-{3-[6-(Difluoromethyl)pyridin-2-yl]-7-(hydroxymethyl)-1H-pyrrolo[3,2-b]pyridin-2-yl}pyridin-2-yl)acetamide], the IC50 on HIS-TGFβR1 T204D was 0.001 µM; at HIS-TGFβR2 WT, 7.81 µM.

`CC(=O)Nc1cc(-c2[nH]c3c(C(C)O)ccnc3c2-c2cccc(C(F)F)n2)ccn1` (stereo not shown) [Example 143, N-(4-{3-[6-(Difluoromethyl)pyridin-2-yl]-7-(1-hydroxyethyl)-1H-pyrrolo[3,2-b]pyridin-2-yl}pyridin-2-yl)acetamide]: the IC50 on HIS-TGFβR1 T204D was determined as 0.001 µM; on HIS-TGFβR2 WT, 2.53 µM.

For the molecule `CC(=O)Nc1cc(-c2[nH]c3c(C(O)C(C)C)ccnc3c2-c2cccc(C(F)F)n2)ccn1` (stereo not shown) [Example 144, N-(4-{3-[6-(Difluoromethyl)pyridin-2-yl]-7-(1-hydroxy-2-methylpropyl)-1H-pyrrolo[3,2-b]pyridin-2-yl}pyridin-2-yl)acetamide], the IC50 at HIS-TGFβR1 T204D stood at 0.001 µM; on HIS-TGFβR2 WT, 0.361 µM.

With `[2H]C([2H])([2H])C(O)c1ccnc2c(-c3cccc(C(F)F)n3)c(-c3ccnc(NC(C)=O)c3)[nH]c12` (stereo not shown) [Example 145, N-(4-{3-[6-(Difluoromethyl)pyridin-2-yl]-7-[1-hydroxy(2,2,2-2H)ethyl]-1H-pyrrolo[3,2-b]pyridin-2-yl}pyridin-2-yl)acetamide], the IC50 came out at 0.002 µM on HIS-TGFβR1 T204D and 2.94 µM at HIS-TGFβR2 WT.

In the case of `CC(=O)Nc1cc(-c2[nH]c3c(C(O)C(F)F)ccnc3c2-c2cccc(C(F)F)n2)ccn1` (stereo not shown) [Example 148, N-{4-[7-(2,2-Difluoro-1-hydroxyethyl)-3-[6-(difluoromethyl)pyridin-2-yl]-1H-pyrrolo[3,2-b]pyridin-2-yl]pyridin-2-yl}acetamide], the values for the IC50 on HIS-TGFβR1 T204D and on HIS-TGFβR2 WT were 0.001 µM and 0.484 µM, respectively.

For the molecule `CC(=O)Nc1cc(-c2[nH]c3c(C(F)F)ccnc3c2-c2cccc(C(F)F)n2)ccn1` [Example 149, N-{4-[7-(Difluoromethyl)-3-[6-(difluoromethyl)pyridin-2-yl]-1H-pyrrolo[3,2-b]pyridin-2-yl]pyridin-2-yl}acetamide], the IC50 at HIS-TGFβR1 T204D amounted to 0.002 µM; at HIS-TGFβR2 WT it was 8.37 µM.

Take `CC(=O)Nc1cc(-c2[nH]c3c(CF)ccnc3c2-c2cccc(C(F)F)n2)ccn1` [Example 150, N-(4-{3-[6-(Difluoromethyl)pyridin-2-yl]-7-(fluoromethyl)-1H-pyrrolo[3,2-b]pyridin-2-yl}-pyridin-2-yl)acetamide]: the IC50 was determined as 0.001 µM at HIS-TGFβR1 T204D and 6.08 µM at HIS-TGFβR2 WT.
